We go through five compounds from PMC12559008 (Nature cancer, 2025).

Data set [1] is described as follows: pKa measurement by pH titration. Type of data set: physicochemical. To be noted: pH probe, titration of SM-AZO-PTX and SM-AZE-PTX.
Data set [2] in a line: MTD dose stated for CPT comparators. To be noted: mouse, in vivo, intravenous.
The next data set can be described thus: in vivo. To be noted: B6129SF1/J, mouse, iv.
The conditions of data set [3]: B6129SF1/J, mouse, in vivo, iv, 24 h.
For data set [4] the following is noted: mouse, in vivo.

In the case of `C1CCCNCC1` [AZE, Azepane], the pKa in data set [1] is around 6.98.
Still for that read-out and setting: in the case of `C1CCCNCCC1` [AZO, Azocane] it was 5.75.
Compound `CC[C@@]1(O)C(=O)OCc2c1cc1n(c2=O)Cc2cc3ccccc3nc2-1` [Free CPT, Camptothecin] returned an MTD in data set [2] of 5 mg/kg.
`Nc1ccn([C@@H]2O[C@H](CO)[C@@H](O)C2(F)F)c(=O)n1` [GEM, gemcitabine] had a half-life in “in vivo” of 23.4 ± 3.6 min. For the same compound, the “Injected GEM dose (%), Tumor” value in data set [3] came out at 0.21%.
Taxol: the “myelosuppression and neuropathy (sternums and dorsal root ganglia), in words” value in data set [4] is “severely damaged sternums and dorsal root ganglia tissues”.
